Measured values: article PMC11294390 (Analytical and Bioanalytical Chemistry, 2024)
Like-named read-outs stand apart in the source and are kept apart here.

Experiments:
[1] = tested on: HSA; conditions: equilibrium and dynamic dialysis; cited from earlier work
[2] = molecular target: human serum albumin (HSA) (Homo sapiens, UniProt P02768); conditions: for k (retention factor): Chiralpak HSA column, racemates
[3] = molecular target: T1, HSA Sudlow site I (Homo sapiens, UniProt P02768); test: Displacement chromatography (zonal elution) with warfarin as competitor; assay type: binding; conditions: k decreases with rising warfarin, P < 0.05; 1/k vs competitor linear, positive slope
T1 construct: purchased Chiral Technologies Europe (Daicel Chemical Industries, Ltd., Osaka, Japan)
T1 sequence (P02768 25-609): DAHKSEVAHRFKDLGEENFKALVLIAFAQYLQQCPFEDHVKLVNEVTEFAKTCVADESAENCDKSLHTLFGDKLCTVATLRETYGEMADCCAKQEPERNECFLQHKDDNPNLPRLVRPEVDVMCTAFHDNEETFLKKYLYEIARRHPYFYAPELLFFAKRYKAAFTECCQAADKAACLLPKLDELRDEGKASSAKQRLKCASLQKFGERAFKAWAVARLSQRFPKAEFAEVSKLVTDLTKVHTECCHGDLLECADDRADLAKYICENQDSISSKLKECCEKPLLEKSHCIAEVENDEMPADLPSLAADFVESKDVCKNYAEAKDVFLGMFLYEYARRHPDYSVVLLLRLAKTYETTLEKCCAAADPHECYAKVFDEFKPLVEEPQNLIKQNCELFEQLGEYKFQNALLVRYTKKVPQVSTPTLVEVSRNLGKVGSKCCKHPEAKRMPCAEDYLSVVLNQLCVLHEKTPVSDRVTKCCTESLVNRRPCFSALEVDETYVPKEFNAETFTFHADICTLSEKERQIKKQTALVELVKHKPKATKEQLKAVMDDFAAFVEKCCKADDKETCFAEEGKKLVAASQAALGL

[4] = tested on: HSA; conditions: value in brackets; cited from earlier work
[5] = tested on: HSA; conditions: literature-reported; cited from earlier work
[6] = tested on: HSA; conditions: cited from earlier work
[7] = tested on: HSA; parameters: method as in PMID 24666938; conditions: HPAC, immobilized HSA column; cited from earlier work
[8] = tested on: bovine serum albumin; conditions: spectroscopic technology; cited from earlier work
[9] = tested on: human plasma proteins; conditions: racemate incubated with plasma, ultrafiltration; cited from earlier work
[10] = tested on: differentiated SH-SY5Y cells; conditions: cited from earlier work
[11] = 100% potassium phosphate buffer 67 mM pH 7.0, 25 °C
[12] = from k by Eq. 4, 100% potassium phosphate buffer 67 mM pH 7.0, 25 °C

Sequence of human serum albumin (HSA) (P02768 25-609): as above

## COc1ccc2c3c1O[C@H]1[C@@H](O)C=C[C@H]4[C@@H](C2)N(C)CC[C@@]341 [COD, codeine]
[1]
  Binding percentage to HSA: about 29%
[2]; [11]
  k (retention factor): 1.89
[2]; [12]
  Bound fraction (%b) to HSA: 65%
[3]
  Competition with warfarin (site I): competition was also observed for both sites I and II

## Cc1ncc([N+](=O)[O-])n1CCO [Metronidazole, metronidazole]
[4]
  Bound fraction (%b) to HSA, literature value: 20.0%
[2]; human, pH 7
  Bound fraction (%b) to HSA, experimental, controls: 19.8%

## CC(=O)CC(c1ccccc1)c1c(O)c2ccccc2oc1=O (stereo not shown) [Warfarin, warfarin]
[5]
  Affinity constant for HSA: 330000 M⁻¹

## CC(CN1c2ccccc2[S+]([O-])c2ccccc21)N(C)C (stereo not shown) [PMZSO, promethazine sulphoxide]
[2]; [11]
  k (retention factor): 3.99
[2]; human, 50 µg/mL, pH 7
  Bound fraction (%b) to HSA: 80%
[3]
  Competition with warfarin (site I): also compete with warfarin and (S)-ibuprofen

## CC(CN1c2ccccc2Sc2ccccc21)N(C)C (stereo not shown) [PMZ, promethazine]
[6]; fluorescence and adsorption spectroscopy
  Association constant of binding to HSA: 1.57 ± 0.20 × 10^4 M^−1
[6]; fluorescence spectroscopy
  Binding site on HSA: located in site I (subdomain IIA)
[7]
  Association constant of binding to HSA: 1.24 ± 0.14 × 10^4 M^−1
[2]; [12]
  Bound fraction (%b) to HSA: 98%
[8]
  Binding constant to bovine serum albumin: 1.40 ± 0.04 × 10^4 M^−1
[3]
  Competition with warfarin (site I): competes with warfarin
[9]
  Enantioselective binding to human plasma proteins: evidence of the enantioselective binding

## CNC(C)CN1c2ccccc2Sc2ccccc21 (stereo not shown) [DMPMZ, N-desmonomethyl promethazine]
[2]; [11]
  k (retention factor): 16.34
[10]
  Cytotoxicity: even more cytotoxic than PMZ
[3]
  Competition with warfarin (site I): also compete with warfarin and (S)-ibuprofen

## CN(C)CCCN1c2ccccc2Sc2ccc(Cl)cc21 [Chlorpromazine, chlorpromazine]
[4]
  Bound fraction (%b) to HSA, literature value: > 90%
[2]; human, pH 7
  Bound fraction (%b) to HSA, experimental, controls: 98.1%
